This passage reports IC50 results from ChEMBL document CHEMBL1157071, “Phenolic constituents of the aerial parts of Cimicifuga simplex and Cimicifuga japonica” (J Nat Prod, 2010).

The experiment deals with T1, Hyaluronidase-1 (Homo sapiens, UniProt Q12794).
T1 sequence (Q12794 whole entry): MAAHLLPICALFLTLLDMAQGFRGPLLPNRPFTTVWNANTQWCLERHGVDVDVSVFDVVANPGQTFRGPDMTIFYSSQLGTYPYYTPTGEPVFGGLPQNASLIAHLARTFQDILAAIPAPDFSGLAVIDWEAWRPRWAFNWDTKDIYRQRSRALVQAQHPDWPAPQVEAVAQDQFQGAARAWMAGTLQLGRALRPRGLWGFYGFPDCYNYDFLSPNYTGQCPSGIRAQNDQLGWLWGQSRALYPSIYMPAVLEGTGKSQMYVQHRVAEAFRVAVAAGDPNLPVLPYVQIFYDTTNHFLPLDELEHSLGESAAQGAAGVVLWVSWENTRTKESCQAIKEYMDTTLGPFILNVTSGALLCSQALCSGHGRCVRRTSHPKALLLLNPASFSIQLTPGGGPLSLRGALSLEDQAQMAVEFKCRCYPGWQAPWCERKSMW
Put plainly: Inhibition of hyaluronidase.

For orientation: IC50 means the concentration that gives 50% inhibition.

As to `O=C(O)/C=C/c1ccc(O)c(O)c1` [CAFFEIC ACID], the IC50 is over 2000 µM.
Compound `O=C(/C=C/c1ccc(O)cc1)O[C@H](C(=O)O)[C@](O)(Cc1ccc(O)cc1)C(=O)O` [CIMICIFUGIC ACID K] returned a half-maximal inhibitory concentration (IC50) of 255 µM.
For `COc1ccc(/C=C/C(=O)O[C@H](C(=O)O)[C@](O)(Cc2ccc(O)cc2)C(=O)O)cc1OC` [CIMICIFUGIC ACID L] the value was 102 µM; for `O=C(/C=C/c1ccc(O)c(O)c1)O[C@H](C(=O)O)[C@](O)(Cc1ccccc1)C(=O)O` [CIMICIFUGIC ACID M], 173 µM.
The compound `COc1ccc(/C=C\C(=O)O[C@H](C(=O)O)[C@](O)(Cc2ccc(O)c(O)c2)C(=O)O)cc1OC` [CIMICIFUGIC ACID N] came in with an IC50 of 120 µM.
For `COc1cc(/C=C/C(=O)O)ccc1O` [FERULATE] the value was over 2000 µM; for `O=C(/C=C/c1ccc(O)c(O)c1)O[C@H](Cc1ccc(O)c(O)c1)C(=O)O` [ROSMARINIC ACID], 545 µM.
